Assay results published in patent US10457687B2, “Aminoacid derivatives, a process for their preparation and pharmaceutical compositions containing them” (LES LABORATOIRES SERVIER, priority 2015, dated 2019).

Key:
[1] = system: cleaved form of PARP in AMO-1 tumour cells; experiment: Quantification of the cleaved form of PARP in vivo (AMO-1 xenograft, MSD ELISA); set-up: species or system mice (SCID strain); conditions: activation factor: cleaved PARP in treated mice / control mice, SCID mice, intraveinous or oral routes
Procedure: The ability of the compounds of the invention to induce apoptosis, by measuring cleaved PARP levels, is evaluated in a xenograft model of AMO-1 multiple myeloma cells. 1·10^7 AMO-1 cells are grafted sub-cutaneously into immunosuppressed mice (SCID strain). 12 to 14 days after the graft, the animals are treated by intraveinous or oral routes with the various compounds. After treatment, the tumour masses are recovered and lysed, and the cleaved form of PARP is quantified in the tumour lysates.
The quantification is carried out using the “Meso Scale Discovery (MSD) ELISA platform” test, which specifically assays the cleaved form of PARP. It is expressed in the form of an activation factor corresponding to the ratio between the quantity of cleaved PARP in the treated mice divided by the quantity of cleaved PARP in the control mice.

[2] = system: H929 multiple myeloma tumour line; experiment: In vitro cytotoxicity, MTT assay, 48 hours; format: cell-based; conditions: H929 cells, 48 hours exposure, cell viability
Procedure: The cytotoxicity studies were carried out on the H929 multiple myeloma tumour line.
The cells are distributed onto microplates and exposed to the test compounds for 48 hours.

Mcl-1 protein = Mcl-1 protein (Homo sapiens, UniProt Q07820); experiment: Inhibition of Mcl-1 by the fluorescence polarisation technique (Method 1 or Method 2); format: binding; conditions: for IC50: fluorescence polarisation, Fluorescein labelled ligand, Method 1 (not underlined) or Method 2 (underlined), read-out: IC50 (μM) Mcl-1 FP
Chain of Mcl-1 protein (Q07820 whole entry): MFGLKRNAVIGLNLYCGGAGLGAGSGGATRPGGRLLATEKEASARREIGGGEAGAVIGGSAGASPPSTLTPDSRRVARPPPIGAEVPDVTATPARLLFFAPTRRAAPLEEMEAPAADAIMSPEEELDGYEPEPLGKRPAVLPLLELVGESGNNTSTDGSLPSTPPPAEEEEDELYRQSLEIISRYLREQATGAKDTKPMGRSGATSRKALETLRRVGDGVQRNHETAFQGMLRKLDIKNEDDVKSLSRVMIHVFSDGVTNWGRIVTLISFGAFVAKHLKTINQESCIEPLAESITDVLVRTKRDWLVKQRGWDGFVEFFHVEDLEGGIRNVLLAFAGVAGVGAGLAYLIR
Method in brief: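 Fluorescence polarisation competition of 11-point compound dilutions (5% DMSO final) against fluorescein-labelled ligand for Mcl-1. Method 1: 1 nM ligand, 5 nM protein in 10 mM HEPES, 150 mM NaCl, 0.05% Tween 20, pH 7.4; Method 2: 10 nM ligand, 10 nM protein in 20 mM Na2HPO4, 1 mM EDTA, 50 mM NaCl, pH 7.4.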

Row | Compound | IC50 (Mcl-1 protein) [µM] | percentage fluorescence polarisation inhibition, Mcl-1 FP (Mcl-1 protein; partial inhibitors, @ 10 μM test compound) [% @ 10 μM] | PARP fold [1] | IC50 ([2]; Homo sapiens, NCI-H929) [nM] | IC50 [2] [nM]
1 | CC#Cc1sc2ncnc(NC(Cc3ccccc3OCc3ccnn3C(C)(C)C)C(=O)O)c2c1-c1ccc(OCCN2CCN(C)CC2)c(Cl)c1C [Example 40, 2-[(1-tert-butyl-1H-pyrazol-5-yl)methoxy]-N-[(5Sa)-5-{3-chloro-2-methyl-4-[2-(4-methylpiperazin-1-yl)ethoxy]phenyl}-6-(prop-1-yn-1-yl)thieno[2,3-d]pyrimidin-4-yl]-D-phenylalanine] | 0.006 | – | 114.3 | 32.8 | –
2 | CCOc1nccc(COc2ccccc2CC(Nc2ncnc3sc(-c4ccc(F)o4)c(-c4ccc(OCCN5CCN(C)CC5)c(Cl)c4C)c23)C(=O)O)n1 [Example 22, N-[(5Sa)-5-{3-chloro-2-methyl-4-[2-(4-methylpiperazin-1-yl)ethoxy]phenyl}-6-(5-fluorofuran-2-yl)thieno[2,3-d]pyrimidin-4-yl]-2-[(2-ethoxypyrimidin-4-yl)methoxy]-D-phenylalanine] | 0.002 | – | 222.2 | 8.59 | –
3 | CC#Cc1sc2ncnc(NC(Cc3ccccc3OCc3ccnc(N4CCOCC4)n3)C(=O)O)c2c1-c1ccc(OCCN2CCN(C)CC2)c(Cl)c1C [Example 43, N-[(5Sa)-5-{3-chloro-2-methyl-4-[2-(4-methylpiperazin-1-yl)ethoxy]phenyl}-6-(prop-1-yn-1-yl)thieno[2,3-d]pyrimidin-4-yl]-2-{[2-(morpholin-4-yl)pyrimidin-4-yl]methoxy}-D-phenylalanine] | 0.006 | – | 114.6 | 12.5 | –
4 | Cc1c(-c2c(-c3ccc(F)o3)sc3ncnc(NC(Cc4ccccc4OCc4ccnn4C)C(=O)O)c23)ccc(OCCN2CCN(C)CC2)c1Cl [Example 20, N-[(5Sa)-5-{3-chloro-2-methyl-4-[2-(4-methylpiperazin-1-yl)ethoxy]phenyl}-6-(5-fluorofuran-2-yl)thieno[2,3-d]pyrimidin-4-yl]-2-[(1-methyl-1H-pyrazol-5-yl)methoxy]-D-phenylalanine] | 0.026 | – | – | 78.6 | –
5 | Cc1c(-c2c(-c3ccc(F)cc3)sc3ncnc(NC(Cc4ccccc4OCc4ccnn4C)C(=O)O)c23)ccc(OCCN2CCN(C)CC2)c1Cl [Example 3, N-[(5Sa)-5-{3-chloro-2-methyl-4-[2-(4-methylpiperazin-1-yl)ethoxy]phenyl}-6-(4-fluorophenyl)thieno[2,3-d]pyrimidin-4-yl]-2-[(1-methyl-1H-pyrazol-5-yl)methoxy]-D-phenylalanine] | 0.114 | – | – | 318 | –
6 | CCn1nccc1COc1ccccc1CC(Nc1ncnc2sc(-c3ccc(F)o3)c(-c3ccc(OCCN4CCN(C)CC4)c(Cl)c3C)c12)C(=O)O [Example 21, N-[(5Sa)-5-{3-chloro-2-methyl-4-[2-(4-methylpiperazin-1-yl)ethoxy]phenyl}-6-(5-fluorofuran-2-yl)thieno[2,3-d]pyrimidin-4-yl]-2-[(1-ethyl-1H-pyrazol-5-yl)methoxy]-D-phenylalanine] | 0.006 | – | – | 39.7 | –
7 | COc1ccccc1C[C@@H](Nc1ncnc2sc(-c3ccc(F)o3)c(-c3ccc(OCCN4CCN(C)CC4)c(Cl)c3C)c12)C(=O)O [Example 15, N-[(5Ra)-5-{3-chloro-2-methyl-4-[2-(4-methylpiperazin-1-yl)ethoxy]phenyl}-6-(5-fluorofuran-2-yl)thieno[2,3-d]pyrimidin-4-yl]-2-methoxy-D-phenylalanine] | – | 40.05 | – | – | > 3750
8 | Cc1c(-c2c(-c3ccsc3)sc3ncnc(NC(Cc4ccccc4CN)C(=O)O)c23)ccc(OCCN2CCOCC2)c1Cl [Example 38, 2-(aminomethyl)-N-[(5Sa)-5-{3-chloro-2-methyl-4-[2-(morpholin-4-yl)ethoxy]phenyl}-6-(thiophen-3-yl)thieno[2,3-d]pyrimidin-4-yl]-D-phenylalanine] | 1.87 | – | – | > 3750 | –
9 | Cc1c(-c2c(-c3ccc(F)o3)sc3ncnc(NC(Cc4ccccc4OCc4ccnc(OCC(F)(F)F)n4)C(=O)O)c23)ccc(OCCN2CCN(C)CC2)c1Cl [Example 26, N-[(5Sa)-5-{3-chloro-2-methyl-4-[2-(4-methylpiperazin-1-yl)ethoxy]phenyl}-6-(5-fluorofuran-2-yl)thieno[2,3-d]pyrimidin-4-yl]-2-{[2-(2,2,2-trifluoroethoxy)pyrimidin-4-yl]methoxy}-D-phenylalanine] | 0.012 | – | – | 6.36 | –

Second part, led by results:

Row | IC50 (Mcl-1 protein) [µM] | percentage fluorescence polarisation inhibition, Mcl-1 FP (Mcl-1 protein; partial inhibitors, @ 10 μM test compound) [% @ 10 μM] | Compound | PARP fold [1] | IC50 ([2]; Homo sapiens, NCI-H929) [nM] | IC50 [2] [nM]
10 | 1.61 | – | CCOC(=O)C(Cc1ccccc1OCc1ccnc(-c2ccccc2OC)n1)Nc1ncnc2sc(-c3ccc(F)cc3)c(-c3ccc(OCCN4CCN(C)CC4)c(Cl)c3C)c12 [Example 256, ethyl N-[(5Sa)-5-{3-chloro-2-methyl-4-[2-(4-methylpiperazin-1-yl)ethoxy]phenyl}-6-(4-fluorophenyl)thieno[2,3-d]pyrimidin-4-yl]-2-{[2-(2-methoxyphenyl)pyrimidin-4-yl]methoxy}-D-phenylalaninate] | 99.5 | > 600 | –
11 | 0.003 | – | CC#Cc1sc2ncnc(N[C@H](Cc3ccccc3OCc3ccnc(-c4ccccc4OC)n3)C(=O)O)c2c1-c1ccc(OCCN(C)C)c(Cl)c1C [Example 49, N-[(5Sa)-5-{3-chloro-4-[2-(dimethylamino)ethoxy]-2-methylphenyl}-6-(prop-1-yn-1-yl)thieno[2,3-d]pyrimidin-4-yl]-2-{[2-(2-methoxyphenyl)pyrimidin-4-yl]methoxy}-D-phenylalanine] | 138.8 | – | 4.12
12 | 0.007 | – | CC#Cc1sc2ncnc(NC(Cc3ccccc3OCc3ccnc(OCC(F)(F)F)n3)C(=O)O)c2c1-c1ccc(OCCN2CCN(C)CC2)c(Cl)c1C [Example 44, N-[(5Sa)-5-{3-chloro-2-methyl-4-[2-(4-methylpiperazin-1-yl)ethoxy]phenyl}-6-(prop-1-yn-1-yl)thieno[2,3-d]pyrimidin-4-yl]-2-{[2-(2,2,2-trifluoroethoxy)pyrimidin-4-yl]methoxy}-D-phenylalanine] | 85.8 | 3.44 | –
13 | 0.055 | – | COc1ccccc1-c1nccc(COc2ccccc2C[C@@H](Nc2ncnc3sc(-c4ccc(F)cc4)c(-c4c(C)c(Cl)c(OCCN5CCN(C)CC5)c(Cl)c4C)c23)C(=O)O)n1 [Example 270, N-[5-{3,5-dichloro-2,6-dimethyl-4-[2-(4-methylpiperazin-1-yl)ethoxy]phenyl}-6-(4-fluorophenyl)thieno[2,3-d]pyrimidin-4-yl]-2-{[2-(2-methoxyphenyl)pyrimidin-4-yl]methoxy}-D-phenylalanine] | – | 522 | –
14 | 1.35 | – | CC#Cc1sc2ncnc(NC(Cc3ccccc3OCc3ccnc(-c4ccccc4OC)n3)C(=O)OCC)c2c1-c1ccc(OCCN(C)C)c(Cl)c1C [Example 259, ethyl N-[(5Sa)-5-{3-chloro-4-[2-(dimethylamino)ethoxy]-2-methylphenyl}-6-(prop-1-yn-1-yl)thieno[2,3-d]pyrimidin-4-yl]-2-{[2-(2-methoxyphenyl)pyrimidin-4-yl]methoxy}-D-phenylalaninate] | 134.4 | > 600 | –
15 | 0.007 | – | Cc1c(-c2c(-c3ccc(F)cc3)sc3ncnc(NC(Cc4ccccc4OCc4ccnc(-c5ccccc5F)n4)C(=O)O)c23)ccc(OCCN(C)C)c1Cl [Example 50, N-[(5Sa)-5-{3-chloro-4-[2-(dimethylamino)ethoxy]-2-methylphenyl}-6-(4-fluorophenyl)thieno[2,3-d]pyrimidin-4-yl]-2-{[2-(2-fluorophenyl)pyrimidin-4-yl]methoxy}-D-phenylalanine] | – | > 150 | –
16 | 1.07 | – | CC#Cc1sc2ncnc(NC(Cc3ccccc3OCc3ccnc(-c4ccccc4OC)n3)C(=O)OCC)c2c1-c1ccc(OCCN2CCN(C)CC2)c(Cl)c1C [Example 258, ethyl N-[(5Sa)-5-{3-chloro-2-methyl-4-[2-(4-methylpiperazin-1-yl)ethoxy]phenyl}-6-(prop-1-yn-1-yl)thieno[2,3-d]pyrimidin-4-yl]-2-{[2-(2-methoxyphenyl)pyrimidin-4-yl]methoxy}-D-phenylalaninate] | 132.3 | 428 | –
17 | 0.005 | – | COCCOc1ccccc1-c1nccc(COc2ccccc2CC(Nc2ncnc3sc(-c4ccc(F)cc4)c(-c4ccc(OCCN(C)C)c(Cl)c4C)c23)C(=O)O)n1 [Example 51, N-[(5Sa)-5-{3-chloro-4-[2-(dimethylamino)ethoxy]-2-methylphenyl}-6-(4-fluorophenyl)thieno[2,3-d]pyrimidin-4-yl]-2-({2-[2-(2-methoxyethoxy)phenyl]pyrimidin-4-yl}methoxy)-D-phenylalanine] | 52.2 | 23.3 | –
